# Assay: gradient 5% acetonitrile 3 min, to 50% in 2 min, to 85% in 15 min, held 3 min, 100 µL/min
# Conditions: column: Zorbax Extend-C18 2.1 x 50 mm; eluents: water / acetonitrile, 0.1% formic acid
# Summary of the method: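 Each retention time is based on an adduct peak selected computationally and verified by manual inspection. Measurements used HPLC–quadrupole time-of-flight mass spectrometry in positive and negative ionization mode on mixtures of ~100 pure standards. Chromatography ran on a Zorbax Extend-C18 column (2.1 × 50 mm, 1.8 μm) at 100 μL/min with water and acetonitrile, each containing 0.1% formic acid, and dead and dwell volumes of 40 μL and 900 μL.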
row,Compound,RP-LC retention time
1,CCn1c(CCNC(=O)c2ccc(OC)cc2)nc2cccnc21,607 s
2,Cc1ccc(NC(=O)C2CCN(S(C)(=O)=O)c3ccccc3O2)cc1Cl (stereo not drawn),985 s
3,COCC(=O)N(C1CCOCC1)C1CCN(C(=O)Cc2ccc(Cl)cc2)CC1,618 s
4,CN(C)C(=O)c1ccc2c(c1)N(CC(=O)NC1CCCCCC1)C(=O)C1CCCCN21 (stereo not drawn),801 s
5,Cc1ccc(Cl)cc1-n1ccnc(NC(=O)Nc2ccccc2)c1=O,1020 s
6,O=C(c1cc2ccccc2o1)N1CC(c2nc(-c3cccnc3)no2)C1,709 s
7,O=C1CCCN1CCCN(CC(=O)N1CCNCC1)C(=O)c1cccc(Cl)c1,586 s
8,CCCN1C(=O)C(CC(=O)NCC2CCCO2)Sc2ncccc21 (stereo not drawn),663 s
9,Cc1ccc(N2C=C(C(=O)N3CCCC3)S(=O)(=O)c3ccccc32)cc1F,813 s
10,CCOc1cc(=O)c(C(=O)N2CCC(C(N)=O)CC2)nn1-c1ccc(OC)cc1,609 s
11,CCSc1nc2ccc(NS(=O)(=O)Cc3cc(F)cc(F)c3)cc2s1,1020 s
12,CCCOC1CCN(C(=O)NC)CC1,630 s
13,COc1ccccc1-c1noc(C2CCCN2C(=O)Nc2ccccc2Br)n1 (stereo not drawn),972 s
14,O=C(NCCCN1CCCC1=O)c1ccc(-n2nnc3cccnc32)cc1,637 s
15,Cc1ccc(C)c(NC(=O)N2CCN(CCn3c(-c4ccncc4)nc4cccnc43)CC2)c1,608 s
16,COc1ccc(-c2nc3cccnc3n2C2CCN(C(=O)c3cccs3)C2)cc1 (stereo not drawn),732 s
17,O=C(NCCc1ccc(F)cc1)C(=O)Nc1cccc(N2CCCC2=O)c1,771 s

# Next, values leading:
row,RP-LC retention time,Compound
1,703 s,O=C(NCC1CCCO1)c1csc(N2CCN(c3cccc(Cl)c3)CC2)n1 (stereo not drawn)
2,1050 s,Cc1ccc(C)c(NC(=O)Cn2cccc2-c2nc(-c3ccc4c(c3)OCO4)no2)c1
3,660 s,O=C(Cn1cnc(-c2cccs2)cc1=O)Nc1ccc(-n2cnnn2)cc1
4,905 s,O=C(Nc1ccc2c(c1)CCC2)C1CCc2nc(N3CCCCC3)ncc2C1 (stereo not drawn)
5,802 s,O=C(Nc1nccn(-c2ccc(F)c(Cl)c2)c1=O)c1ccc2c(c1)OCO2
6,599 s,O=C(NCc1ccc(F)cc1)c1ccc(=O)n(CCN2CCOCC2)c1
7,1140 s,Cc1ccc(C)c(-c2csc(NC(=O)c3ccc4c(c3)OCO4)n2)c1
8,758 s,CCn1ccc2c(cc(C(=O)Nc3ccccc3Br)n2C)c1=O
9,939 s,CCC(C(=O)Nc1c(-c2ccccc2)nc2cc(C)ccn12)c1ccccc1 (stereo not drawn)
10,591 s,COCCNC(=O)CCc1nc2ccccc2[nH]c1=O
11,615 s,C1CCC(NC2=NCCO2)CC1
12,584 s,CS(=O)(=O)N1CCCC1C(=O)N1CCCC1 (stereo not drawn)
13,899 s,Cc1ccc(NC(=O)Cn2c(=O)n(-c3cccc(C)c3)c(=O)c3c2cc(C)n3C)cc1
14,723 s,Cc1ccc(NC(=O)Nc2ccc3nncn3c2)cc1F
15,960 s,COc1ccccc1NC(=O)CSc1nc2c(-c3ccccc3)csc2c(=O)n1C
16,552 s,Cn1c(=O)n(C2CCN(Cc3ccsc3)CC2)c2ncncc21
17,616 s,O=C(c1nc(CS(=O)(=O)c2ccccc2)no1)N1CCN(c2ccccn2)CC1
18,862 s,CC1=C(c2ccccc2)S(=O)(=O)N=C1N1CCCN(C(=O)c2cccc(Cl)c2)CC1
19,1240 s,CCOC(=O)c1ccc2nc(C(F)(F)F)nc(NCc3ccc(Cl)cc3)c2c1
20,796 s,O=C(c1ccc(Br)o1)N1CCN(c2cc(-c3ccccc3)[nH]n2)CC1
21,1170 s,O=C(CCc1nc(-c2ccc(N3CCCC3)cc2)no1)NCCC1=CCCCC1
